Earlier results in patent US7557115B2, “Compounds, compositions, and methods” (Cytokinetics, Inc., priority 2002, dated 2009).

tested on: A549 cells; conditions: concentration that decreases rate of cell growth by fifty percent

Row | GI50 [nM] | Structure (SMILES)
1 | 1000 | O=c1[nH]cc(F)c(=O)[nH]1 [5-fluorouracil]
2 | 63 | COc1cccc2c1C(=O)c1c(O)c3c(c(O)c1C2=O)C[C@@](O)(C(=O)CO)C[C@@H]3O[C@H]1C[C@H](N)[C@H](O)[C@H](C)O1 [doxorubicin]
3 | 500000 | NC(=O)NO [hydroxyurea]
4 | 4 | CC(=O)O[C@H]1C(=O)[C@@]2(C)[C@H]([C@H](OC(=O)c3ccccc3)[C@]3(O)C[C@H](OC(=O)[C@H](O)[C@@H](NC(=O)c4ccccc4)c4ccccc4)C(C)=C1C3(C)C)[C@]1(OC(C)=O)CO[C@@H]1C[C@@H]2O [paclitaxel]
